Measured values from ChEMBL document CHEMBL1201862, “PubChem BioAssay data set” (2004).
Activity calls are given as the source filed them.

Experiments:
[1] = molecular target: T1, Microphthalmia-associated transcription factor (Homo sapiens, UniProt O75030); test: reducers of TRPM1 reporter luminescence, concentration series – cell-based, SK-MEL-5, cherry-picked, set 3, MITF inhibitor project, dose response (AID 493073); type: functional;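 note: SK-MEL-5 melanoma cells with luciferase driven by the MITF target TRPM1 promoter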
T1 sequence (O75030 whole entry): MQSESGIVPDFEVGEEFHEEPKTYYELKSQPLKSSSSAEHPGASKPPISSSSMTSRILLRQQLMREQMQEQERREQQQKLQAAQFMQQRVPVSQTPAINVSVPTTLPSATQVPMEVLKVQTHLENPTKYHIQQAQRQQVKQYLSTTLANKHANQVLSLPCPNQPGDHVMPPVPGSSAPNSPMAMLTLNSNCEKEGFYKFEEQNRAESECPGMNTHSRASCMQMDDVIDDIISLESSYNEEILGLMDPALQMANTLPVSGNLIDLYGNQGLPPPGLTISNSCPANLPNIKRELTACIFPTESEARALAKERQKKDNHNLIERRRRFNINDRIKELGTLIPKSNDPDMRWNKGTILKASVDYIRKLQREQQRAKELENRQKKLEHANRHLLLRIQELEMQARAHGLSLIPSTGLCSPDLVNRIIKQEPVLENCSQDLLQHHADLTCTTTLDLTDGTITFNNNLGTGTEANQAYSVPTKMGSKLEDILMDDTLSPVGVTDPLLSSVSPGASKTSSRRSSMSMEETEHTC

[2] = molecular target: T2, Apoptotic protease-activating factor 1 (Homo sapiens, UniProt O14727); type: functional
T2 sequence (O14727 whole entry): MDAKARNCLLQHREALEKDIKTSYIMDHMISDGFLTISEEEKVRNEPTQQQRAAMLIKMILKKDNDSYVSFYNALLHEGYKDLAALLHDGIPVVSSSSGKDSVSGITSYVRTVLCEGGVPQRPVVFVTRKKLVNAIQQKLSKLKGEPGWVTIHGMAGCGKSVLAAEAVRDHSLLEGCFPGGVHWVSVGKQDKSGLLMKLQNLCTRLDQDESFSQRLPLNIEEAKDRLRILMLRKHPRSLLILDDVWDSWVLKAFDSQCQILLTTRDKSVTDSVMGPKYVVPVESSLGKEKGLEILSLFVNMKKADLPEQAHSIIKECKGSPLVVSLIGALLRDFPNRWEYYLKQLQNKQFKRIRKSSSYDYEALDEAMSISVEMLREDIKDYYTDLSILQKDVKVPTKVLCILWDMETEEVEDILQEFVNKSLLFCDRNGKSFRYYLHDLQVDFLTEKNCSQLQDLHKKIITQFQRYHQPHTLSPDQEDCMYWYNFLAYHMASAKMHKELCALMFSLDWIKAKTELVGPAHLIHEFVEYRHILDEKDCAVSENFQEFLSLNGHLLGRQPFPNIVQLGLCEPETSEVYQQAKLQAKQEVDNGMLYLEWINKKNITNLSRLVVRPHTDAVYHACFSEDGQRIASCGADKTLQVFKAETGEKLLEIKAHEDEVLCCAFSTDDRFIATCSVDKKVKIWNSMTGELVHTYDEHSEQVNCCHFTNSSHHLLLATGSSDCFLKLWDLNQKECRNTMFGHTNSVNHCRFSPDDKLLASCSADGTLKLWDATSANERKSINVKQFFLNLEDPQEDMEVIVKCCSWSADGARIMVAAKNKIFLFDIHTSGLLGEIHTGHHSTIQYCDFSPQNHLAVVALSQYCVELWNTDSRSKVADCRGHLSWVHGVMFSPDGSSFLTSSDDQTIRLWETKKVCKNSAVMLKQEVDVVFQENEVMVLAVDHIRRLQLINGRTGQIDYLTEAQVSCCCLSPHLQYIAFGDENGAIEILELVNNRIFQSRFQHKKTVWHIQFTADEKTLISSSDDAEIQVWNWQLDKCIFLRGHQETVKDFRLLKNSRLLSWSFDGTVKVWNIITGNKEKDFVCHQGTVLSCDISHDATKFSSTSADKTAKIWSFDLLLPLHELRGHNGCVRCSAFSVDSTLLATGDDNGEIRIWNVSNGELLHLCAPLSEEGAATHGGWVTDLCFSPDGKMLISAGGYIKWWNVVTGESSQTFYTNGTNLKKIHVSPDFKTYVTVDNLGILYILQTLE

HEK293 = test: EBV LMP1 TES2 canonical NF-kB signalling blockers – cell-based, HEK293, luciferase, cherry-pick, dose response (AID 588343); type: functional; conditions: Homo sapiens
Paired box protein Pax-8 = Paired box protein Pax-8 (Homo sapiens, UniProt Q06710); test: PAX8 transcriptional activity inhibition in RMG-I – RMG-I cells, luciferase, cherry-pick, dose response (AID 687027); type: functional, cell-based;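 note: luciferase reporter driven by Pax8 target thyroperoxidase promoter measured by SteadyGlo luminescence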
Paired box protein Pax-8, sequence (Q06710 whole entry): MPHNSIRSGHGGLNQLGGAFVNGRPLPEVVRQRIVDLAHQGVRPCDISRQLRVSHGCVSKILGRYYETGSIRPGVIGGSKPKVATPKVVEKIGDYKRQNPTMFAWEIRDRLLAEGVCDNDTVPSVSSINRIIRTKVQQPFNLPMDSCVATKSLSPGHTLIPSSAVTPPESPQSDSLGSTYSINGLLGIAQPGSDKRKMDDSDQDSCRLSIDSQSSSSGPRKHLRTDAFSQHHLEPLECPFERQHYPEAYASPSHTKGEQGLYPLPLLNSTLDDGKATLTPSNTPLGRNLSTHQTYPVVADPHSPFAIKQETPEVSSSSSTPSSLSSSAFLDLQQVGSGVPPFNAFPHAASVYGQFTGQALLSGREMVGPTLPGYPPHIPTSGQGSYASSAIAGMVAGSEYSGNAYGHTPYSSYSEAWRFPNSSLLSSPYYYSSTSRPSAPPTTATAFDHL

[3] = general cell-killing toxicity readout – plate reader, dry powder samples, cytotoxicity control for PAX8 inhibitor project, dose response (AID 743021); type: functional, cell-based
[4] = OVCAR-3 cell viability loss – plate reader, dry powder samples, PAX8 inhibitor project, dose response (AID 743044); type: functional, cell-based
[5] = OVCAR8 cell viability loss – plate reader, dry powder samples, PAX8 project, dose response (AID 743197); type: functional, cell-based; conditions: OVCAR-8
[6] = fluconazole-exposed Candida albicans growth modulators – fluorescence, retest, confirmation (AID 2467); type: functional, cell-based
[7] = NIH-3T3 fibroblast cytotoxicity, dose response, cytotoxicity control, cell-based, fluorescence, Alamar Blue, secondary assay (AID 2327); type: functional;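 note: NIH-3T3 mouse fibroblasts cultured with fluconazole at 8 µg/mL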
[8] = A High Throughput Confirmatory Assay used to Identify Novel Compounds that Inhibit Mycobacterium Tuberculosis in the absence of Glycerol.; type: functional
[9] = molecular target: T3, Rac GTPase-activating protein 1 (Homo sapiens, UniProt Q9H0H5); test: blockers of MgcRacGAP-driven Rac1 GTP hydrolysis – biochemical, ADP Hunter fluorescence, primary and confirmatory, confirmation (AID 624330); type: functional
T3 sequence (Q9H0H5 whole entry): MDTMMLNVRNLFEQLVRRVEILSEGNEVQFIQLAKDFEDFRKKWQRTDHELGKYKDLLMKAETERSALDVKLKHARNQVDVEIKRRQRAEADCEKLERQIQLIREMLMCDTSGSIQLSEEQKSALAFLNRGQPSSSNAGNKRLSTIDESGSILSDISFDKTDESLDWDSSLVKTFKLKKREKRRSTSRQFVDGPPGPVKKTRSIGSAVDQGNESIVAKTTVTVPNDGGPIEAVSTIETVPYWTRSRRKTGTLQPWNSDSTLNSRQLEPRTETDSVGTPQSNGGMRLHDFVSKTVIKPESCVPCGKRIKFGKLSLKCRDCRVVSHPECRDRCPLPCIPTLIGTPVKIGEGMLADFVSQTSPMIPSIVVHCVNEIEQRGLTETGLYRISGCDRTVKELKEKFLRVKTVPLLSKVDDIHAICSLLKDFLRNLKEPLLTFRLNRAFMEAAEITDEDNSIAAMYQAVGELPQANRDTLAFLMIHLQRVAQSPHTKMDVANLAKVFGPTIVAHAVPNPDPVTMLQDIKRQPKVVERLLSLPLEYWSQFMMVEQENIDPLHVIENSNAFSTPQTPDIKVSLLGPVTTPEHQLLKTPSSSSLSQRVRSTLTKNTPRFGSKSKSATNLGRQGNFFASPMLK

[10] = non-specific 3'UTR reporter inhibition in Clone20-Shn3RL – cell-based, Renilla luciferase, cherry-picked, counter-screen for Shn3 inhibitor project, dose response (AID 624133); type: functional
[11] = reduction of Shn3 3'UTR-driven luciferase in osteoblasts – cell-based, Clone20 osteoblasts, firefly luciferase, cherry-picked, dose response (AID 624132); type: functional;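 note: firefly luciferase luminescence from reporter carrying the Shn3 3'UTR in osteoblasts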
[12] = loss of viability in HepG2 cells – cell-based, CellTiter-Glo, cherry-picked, cytotoxicity control for Shn3 inhibitor project, dose response (AID 624134); type: functional
Genome polyprotein = Genome polyprotein (dengue virus type 2, UniProt P29990); test: flavivirus cap methylation enzyme inhibition – biochemical, confirmation dose response, primary screen (AID 588689); type: functional
Genome polyprotein, sequence (P29990 2492-3391 limits assumed): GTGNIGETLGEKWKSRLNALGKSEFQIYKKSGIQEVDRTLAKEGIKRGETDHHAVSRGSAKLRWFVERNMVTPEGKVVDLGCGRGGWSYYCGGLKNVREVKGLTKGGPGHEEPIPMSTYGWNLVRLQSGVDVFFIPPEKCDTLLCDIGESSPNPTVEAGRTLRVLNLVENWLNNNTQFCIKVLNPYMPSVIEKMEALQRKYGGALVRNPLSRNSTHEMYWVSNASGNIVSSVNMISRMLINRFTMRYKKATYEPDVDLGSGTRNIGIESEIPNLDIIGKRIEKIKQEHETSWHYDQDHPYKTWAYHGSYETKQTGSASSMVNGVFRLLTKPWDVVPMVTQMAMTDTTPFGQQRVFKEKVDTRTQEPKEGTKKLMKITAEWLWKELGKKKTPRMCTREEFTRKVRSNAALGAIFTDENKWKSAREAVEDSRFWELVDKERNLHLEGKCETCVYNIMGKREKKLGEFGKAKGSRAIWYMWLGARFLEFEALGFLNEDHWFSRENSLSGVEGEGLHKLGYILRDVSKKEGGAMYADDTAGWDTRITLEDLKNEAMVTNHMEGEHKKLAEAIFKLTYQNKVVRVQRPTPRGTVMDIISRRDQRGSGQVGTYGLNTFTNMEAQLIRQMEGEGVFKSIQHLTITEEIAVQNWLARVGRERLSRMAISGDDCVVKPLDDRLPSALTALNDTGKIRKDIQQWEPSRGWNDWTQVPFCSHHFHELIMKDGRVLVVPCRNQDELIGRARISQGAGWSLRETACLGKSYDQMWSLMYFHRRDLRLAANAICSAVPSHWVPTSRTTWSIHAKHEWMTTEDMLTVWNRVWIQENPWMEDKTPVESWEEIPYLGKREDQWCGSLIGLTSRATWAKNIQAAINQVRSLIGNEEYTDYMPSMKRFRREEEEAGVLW

Caspase-6 = molecular target: T4, Caspase-6 (Homo sapiens, UniProt P55212); test: inhibition of CASP6 peptide cleavage – biochemical, VEID-R110 fluorescence, cherry-pick, dose response (AID 720632)
T4 sequence (P55212 whole entry): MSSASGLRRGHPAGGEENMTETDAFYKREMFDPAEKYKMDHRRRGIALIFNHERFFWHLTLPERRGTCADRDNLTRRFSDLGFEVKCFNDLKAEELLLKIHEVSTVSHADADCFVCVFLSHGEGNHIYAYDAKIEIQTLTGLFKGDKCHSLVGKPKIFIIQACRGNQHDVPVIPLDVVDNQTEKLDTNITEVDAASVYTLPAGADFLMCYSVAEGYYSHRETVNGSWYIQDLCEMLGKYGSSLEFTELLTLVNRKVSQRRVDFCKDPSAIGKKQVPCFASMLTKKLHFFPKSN

[13] = molecular target: Heat shock protein HSP 90-alpha (Homo sapiens, UniProt P07900); type: functional, organism-based

## Cc1ccc(S(=O)(=O)[N-]C2=C(n3cc[n+](CCC(C)C)c3)C(=O)c3ccccc3C2=O)cc1
[1]
  AC50: 4.11 µM (active)
[2]
  IC50: 12.2 µM (active)

## Cc1ccccc1C(=O)N1CCN(c2ccc(NC(=O)c3cccs3)cc2)CC1
HEK293
  AC50: 0.788 µM (active)

## CC(C)CC#Cc1ccc2c(c1)O[C@H](CN(C)S(=O)(=O)c1ccc(F)cc1)[C@H](C)CN([C@H](C)CO)S2(=O)=O
Paired box protein Pax-8
  AC50: 14.5 µM (active)
[3]
  AC50: 61.2 µM (active)
[4]
  AC50: 31.9 µM (active)
[5]
  AC50: 57.1 µM (active)

## O=C1NN(c2ccc(Br)cc2)C(=O)/C1=C\c1ccc(O)cc1O
[6]
  EC50: > 38 µM (not active)
[7]
  EC50: > 150 µM (inconclusive)
[8]
  IC50: > 100 µM (active)
[9]
  IC50: 159 µM (active)

## O=C(Nc1ccc(Br)cc1)c1ccc(F)c(S(=O)(=O)NCc2cccs2)c1
[10]
  AC50: 6.05 µM (active)
[11]
  AC50: 3.05 µM (active)
[12]
  AC50: 4.35 µM (active)

## CC(=O)C1(C)CCC2C3C=C(C)C4=CC(=O)CCC4(C)C3CCC21C (stereo not given)
[10]
  AC50: 29.1 µM (active)
[11]
  AC50: 9.83 µM (active)
[12]
  AC50: 45.2 µM (active)

## Cc1ccc(S(=O)(=O)Oc2ccccc2C=C2C(=O)N(C)C(=O)N(C)C2=O)cc1
Genome polyprotein
  IC50: 37.8 µM (active)

## O=C(O)c1ccccc1NS(=O)(=O)c1ccc(NN=Cc2ccccc2F)c([N+](=O)[O-])c1
Caspase-6
  AC50: 19 µM (active)

## CC(C)c1ccc(N2C(=O)C(Cl)=C(N3CCOCC3)C2=O)cc1
Genome polyprotein
  IC50: 69.4 µM (active)

## Nc1cc([N+](=O)[O-])cc2oc(-c3ccccc3)cc12
[8]
  IC50: > 100 µM (active)

## COc1ccc(C(=O)Nc2ccc(N3CCN(C(=O)c4ccccc4C)CC3)cc2)cc1
HEK293
  AC50: 4.67 µM (active)

## CCc1ccc(OCC(=O)NNC(=S)NC(=O)C2CC2)c(Br)c1
[6]
  EC50: 1.61 µM (active)
[13]
  AC50: 0.978 µM (active)
[7]
  EC50: > 150 µM (inactive)
